Values after ≈ are worked out from the molar mass of the structure shown. *1 amine or outer side, *2 acyl side, *3 side chain or, on linkers, in order; H or OH if unused. Where a SMILES comes first, the peptide text is derived from it. Bridges are numbered along the chain shown (N, C = ends). [ ]: non-standard residue; d: D form. The star is where a group is joined. Phe(3,5-F2) = N[C@@H](Cc1cc(F)cc(F)c1)C(=O)O; NHPh(4-CF3) = FC(F)(F)c1ccc(N*)cc1; aThr = C[C@H](O)[C@H](N)C(=O)O; Pip = O=C(O)[C@@H]1CCCCN1; CO = O=C([*:1])[*:2]
Key:
[1] = target: T1, Sa-ClpP (Staphylococcus aureus, UniProt Q2G036); assay: ClpP activation, EnzCheck Protease Assay with Bodipy-FL casein (second described method); format: biochemical, S. aureus; conditions: read-out: ClpP Activation EC50 (converted)
T1 construct: made in house; host or cells: E. coli BL21 (DE3)
Summary of the method: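 Sa-ClpP (2 μM in master mix) with Bodipy-FL casein (2 μM in master mix) in Tris-HCl pH 8.0, 0.01% Triton X-100, compounds in 2% DMSO, triplicate. Fluorescence (ex 485/em 520 nm) followed 30 min; degradation slopes normalized to ADEP4 and DMSO controls, EC50 and % activation by four-parameter fit.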

[2] = system: S. pneumoniae R6; assay: Minimal inhibitory concentration, microbroth dilution; format: cell-based; conditions: Streptococcus pneumoniae, R6, read-out: Minimal Inhibitory Concentration S. pneumoniae R6
Summary of the method: (§1)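 Twofold serial dilutions in broth per CLSI M7-A7 microbroth dilution, incubated aerobically overnight at 37° C. MIC read visually as lowest concentration preventing bacterial growth.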

[3] = system: S. pyogenes ATCC 700294; assay: as above; format: cell-based; conditions: Streptococcus pyogenes, ATCC700294, read-out: Minimal Inhibitory Concentration S. pyogenes ATCC 700294
Summary of the method: as §1

[4] = system: E. faecails ATCC 33186; assay: as above; format: cell-based; conditions: Enterococcus faecalis, ATCC33186, read-out: Minimal Inhibitory Concentration E. faecails ATCC 33186
Summary of the method: (§2)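 Following CLSI M7-A7 microbroth dilution, twofold serial dilutions of compound (top final concentration 200 μM) were combined with an equal volume of broth inoculum at about 10^5 cfu/mL. Plates were incubated aerobically at 37 °C overnight, and the MIC was the lowest concentration preventing visible growth.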

[5] = Microsomal metabolic stability determination; conditions: CD-1, mouse, microsomes, pH 7.4
Procedure: Compounds were initially prepared by dissolving them into DMSO at a final concentration of 10 mM. NADPH regenerating solutions A and B and mouse liver microsomes (CD-1) were obtained from BD Gentest (Woburn, Mass.). Ninety-six well deep well plates were obtained from MidWest Scientific Inc (Valley Park, Mo.).
Sample preparation for microsomal stability was modified from methods of Di, L., et al., Int J Pharm. 2005 Jun. 13; 297(1-2): 110-9. A set of incubation times of 0, 15, 30, 60, 120, and 240 minutes were used. Mouse liver microsomal solutions were prepared by adding 58 μL of concentrated human or mouse liver microsomes (20 mg/mL protein concentration) to 1.756 mL of 0.1 M potassium phosphate buffer (pH 7.4) and 5 μL of 0.5 M EDTA to make a 0.6381 mg/mL (protein) microsomal solution. NADPH regenerating agent contained 113 μL of NADPH A, 23 μL of NADPH B, and 315 μL of 0.1 M potassium phosphate buffer (pH 7.4). The diluted test compound solutions (2 μL) were each added directly to a 1.79 mL of liver microsomal solution. This solution was mixed and 90 μL was transferred to 6 time points plates (each in triplicate wells). For the time 0 plate, 225 μL of cold acetonitrile with internal standard ([…] warfarin) was added to each well, followed by addition of NADPH regenerating agent (22.5 μL) and no incubation. For other five time points' plate, NADPH regenerating agent (22.5 μL) was added to each well to initiate the reaction. The plates were incubated at 37° C. for the required time, followed by quenching of the reaction by adding 225 μL of cold acetonitrile with internal standard (4 μg/ml warfarin). All of the plates were sealed and mixed well at 600 rpm for 10 minutes followed by centrifugation at 4000 rpm for 20 minutes. The supernatants (120 μL) were transferred to analytical plates for analysis by LCMS. LCMS conditions were described in the materials and instrumentation section above. The metabolic stability is evaluated via the half-life from least-squares fit of the multiple time points based on first-order kinetics.

[6] = system: S. aureus USA 300 ΔClpP; assay: Minimal inhibitory concentration, microbroth dilution; format: cell-based, Staphylococcus aureus; conditions: ClpP inactivated strain
Summary of the method: as §2

T1 sequence (Q2G036 whole entry): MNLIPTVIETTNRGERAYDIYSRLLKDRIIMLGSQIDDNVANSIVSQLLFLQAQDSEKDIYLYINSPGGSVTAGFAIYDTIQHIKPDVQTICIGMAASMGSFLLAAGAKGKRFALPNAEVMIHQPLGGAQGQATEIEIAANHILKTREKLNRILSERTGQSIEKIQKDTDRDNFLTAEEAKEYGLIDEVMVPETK

Compound | EC50 [1] [nM] | MIC [2] [µM] | MIC [3] [µM] | MIC [4] [µM] | half-life [5] [min] | Minimal Inhibitory Concentration S. aureus USA 300 ΔClpP [6] [µM]
Cc1ccc(NC(=O)N[C@@H](Cc2ccccc2)C(=O)N[C@H]2COC(=O)[C@@H]3C[C@@H](C)CN3C(=O)[C@H](C)NC(=O)[C@@H]3CCCCN3C(=O)[C@@H]3CCCN3C2=O)cc1 [Compound 23, (S)—N-((2R,6S,8aS,14aS,20S,23aS)-2,6-Dimethyl-5,8,14,19,23-Pentaoxooctadecahydro-1H,5H,14H,19H-Pyrido[2,1-I]Dipyrrolo[2,1-C:2′,1′-L][1]Oxa[4,7,10,13]Tetraazacyclohexadecin-20-Yl)-3-Phenyl-2-(3-(P-Tolyl)Ureido)Propanamide] | 500 | < 0.2 | < 0.2 | < 0.2 | 178 ± 18 | 
C[C@H]1C[C@H]2C(=O)O[C@@H](C)[C@H](NC(=O)[C@H](Cc3cc(F)cc(F)c3)NC(=O)Nc3ccc(C(F)(F)F)cc3)C(=O)N3CCC[C@H]3C(=O)N3CCCC[C@H]3C(=O)N[C@@H](C)C(=O)N2C1 [Compound 19, (S)-3-(3,5-Difluorophenyl)-2-(3-(4-(Trifluoromethyl)Phenyl)Ureido)-N-((2R,6S,8aS,14aS,20S,21S,23aS)-2,6,21-Trimethyl-5,8,14,19,23-Pentaoxooctadecahydro-1H,5H,14H,19H-Pyrido[2,1-I]Dipyrrolo[2,1-C:2′,1′-L][1]Oxa[4,7,10,13]Tetraazacyclohexadecin-20-Yl)Propanamide] | 330 | 0.8 (≈ 0.689 µg/mL) | 0.4 (≈ 0.345 µg/mL) | 0.39 (≈ 0.336 µg/mL) | 30 | 6.2
Cc1ccc(NC(=O)N[C@@H](Cc2cc(F)cc(F)c2)C(=O)N[C@@H]2C(=O)N3CCC[C@H]3C(=O)N3CCCC[C@H]3C(=O)N[C@@H](C)C(=O)N3C[C@@H](C)C[C@H]3C(=O)O[C@H]2C)cc1 [Compound 18, (S)-3-(3,5-Difluorophenyl)-2-(3-(P-Tolyl)Ureido)-N-((2R,6S,8aS,14aS,20S,21S,23aS)-2,6,21-Trimethyl-5,8,14,19,23-Pentaoxooctadecahydro-1H,5H,14H,19H-Pyrido[2,1-I]Dipyrrolo[2,1-C:2′,1′-L][1]Oxa[4,7,10,13]Tetraazacyclohexadecin-20-Yl)Propanamide] | 320 | < 0.1 | < 0.1 | 0.8 (≈ 0.646 µg/mL) | 60 ± 6 | 100
Cc1ccc(NC(=O)N[C@@H](Cc2cc(F)cc(F)c2)C(=O)N[C@@H]2C(=O)N3CCC[C@H]3C(=O)N3CCCC[C@H]3C(=O)N[C@@H](C)C(=O)N3CCC[C@H]3C(=O)O[C@H]2C)cc1 [Compound 15, (S)-3-(3,5-Difluorophenyl)-N-((6S,8aS,14aS,20S,21 S,23aS)-6,21-Dimethyl-5,8,14,19,23-Pentaoxooctadecahydro-1H,5H,14H,19H-Pyrido[2,1-I]Dipyrrolo[2,1-C:2′,1′-L][1]Oxa[4,7,10,13]Tetraazacyclohexadecin-20-Yl)-2-(3-(P-Tolyl)Ureido)Propanamide] | 700 | 0.3 (≈ 0.238 µg/mL) | 0.6 (≈ 0.476 µg/mL) | 0.3 (≈ 0.238 µg/mL) | 18 | 100
C[C@@H]1NC(=O)[C@@H]2CCCCN2C(=O)[C@@H]2CCCN2C(=O)[C@@H](NC(=O)[C@H](Cc2cc(F)cc(F)c2)NC(=O)Nc2ccc(C(F)(F)F)cc2)[C@H](C)OC(=O)[C@@H]2CCCN2C1=O [Compound 16, (S)-3-(3,5-Difluorophenyl)-N-((6S,8aS,14aS,20S,21 S,23aS)-6,21-Dimethyl-5,8,14,19,23-Pentaoxooctadecahydro-1H,5H,14H,19H-Pyrido[2,1-I]Dipyrrolo[2,1-C:2′,1′-L][1]Oxa[4,7,10,13]Tetraazacyclohexadecin-20-Yl)-2-(3-(4-(Trifluoromethyl)Phenyl)Ureido)Propanamide] ({NHPh(4-CF3)-CO}-[Phe(3,5-F2)][aThr]P[Pip]AP; ester 2-C) | 550 | 0.8 (≈ 0.678 µg/mL) | 1.5 (≈ 1.27 µg/mL) | < 0.1 | 42 | 3.1

Source: US9879050B2, “Substituted urea depsipeptide analogs as activators of the CLPP endopeptidase” (priority 2013, dated 2018)
